Measured values reported in patent US11891373B2, “Crystalline forms of 1-((2R,4R)-2-(1H-benzo[d]imidazol-2-yl)-1-methylpiperidin-4-yl)-3-(4-cyanophenyl)urea maleate” (priority 2015, dated 2024).
Counter-ions that a name gives are not always drawn.

What was measured:
Format in all cases: physicochemical
[1] = Chemical stability of tablet cores (5% drug loading), open dish, HPLC/Purity analysis; settings: 5% active drug loading; for % -(2S,4R)-Epimer 6 weeks @ 50° C./75% RH: open dish
Procedure: Comparative chemical and physical stability data was generated for tablet cores comprising glasdegib dihydrochloride monohydrate (diHCl.H2O) and glasdegib maleate (Form 1) stored at 50° C./75% RH for 6 weeks. The tablet cores were prepared by dry granulation processing in a formulation composition comprising microcrystalline cellulose, dicalcium phosphate, sodium starch glycolate and magnesium stearate at an active drug loading level of 5%. The tablet cores were stored in open dish (no packaging) orientation in a 50° C./75% RH chamber and analyzed after 6 weeks of storage. The analytical testing included HPLC/Purity analysis and solid state NMR (for solid form).
The primary degradation product monitored is the epimeric 1-((2S,4R)-2-(1H-benzo[d]imidazol-2-yl)-1-methylpiperidin-4-yl)-3-(4-cyanophenyl)urea, which has the structure: […]

[2] = Accelerated 21-day stability study of tablets, shelf-life prediction from (2S,4R)-epimer formation; settings: 60 cc HDPE bottle, 30 count tablets, 25° C./60% RH, epimer limit NMT 0.5%
Procedure: See Waterman et al., Pharmaceutical Research, 24(4): 780-790 (2007). The tablets were stored in open glass bottles and exposed to various temperature, humidities and durations.
The recommended packaging for the glasdegib dihydrochloride monohydrate tablets is HDPE/IS Bottle, with desiccant. The labeled storage condition of this product is 15-25° C.
The recommended packaging for the glasdegib maleate tablets is HDPE/IS Bottle and no desiccant is required. The labeled storage condition of this product is 15-25° C.

[3] = Comparative thermal stability by Differential Scanning Calorimetry (DSC); settings: 25° C. to 250° C. at 10° C./min, dry nitrogen purge
Procedure: Comparative thermal stability data was generated for glasdegib dihydrochloride monohydrate (diHCl.H2O) and glasdegib maleate (Form 1). Differential Scanning calorimetry (DSC) measurements were performed with Discovery DSC (TA instruments) equipped with a refrigerated cooling accessory. All the experiments were performed in standard/Tzero aluminum pans. The cell constant was determined using indium and temperature calibration was performed using indium and tin as standards. All the measurements were done under continuous dry nitrogen purge (50 mL/min). Approximately 2-5 mg of solid sample was weighed into a standard/Tzero aluminum pan, sealed non-hermetically and heated from 25° C. to 250° C. at 10° C./min heating rate. The experimental data were analyzed using commercially available software (TA Universal Analysis 2000/Trios software, TA Instruments).

% -(2S,4R)-Epimer 6 weeks @ 50° C./75% RH [1] [%]	shelf-life predicted, with desiccant ([2]; with desiccant)	shelf-life predicted, stored without desiccant [2]	Thermal Stability (stable up to) [3]	% -(2S,4R)-Epimer Initial Level ([1]; before storage) [%]	SMILES
2.75	approximately 5 years	less than 2 years	Stable up to 50 °C		CN1CC[C@@H](NC(=O)Nc2ccc(C#N)cc2)C[C@@H]1c1nc2ccccc2[nH]1 [Glasdegib dihydrochloride monohydrate]
0.55		more than 6 years	Stable up to 207 °C	0.024	CN1CC[C@@H](NC(=O)Nc2ccc(C#N)cc2)C[C@@H]1c1nc2ccccc2[nH]1.O=C(O)/C=C\C(=O)O [Glasdegib maleate (Form 1), 1-((2R,4R)-2-(1H-benzo[d]imidazol-2-yl)-1-methylpiperidin-4-yl)-3-(4-cyanophenyl)urea maleate]
